Measured values reported in patent US8569295B2, “Bicyclic urea compounds” (Merck Patent GmbH, priority 2009, dated 2013).

biological target: T1, GST-Aurora A (Homo sapiens, UniProt O14965); assay: Aurora A kinase biochemical mobility shift assay (Caliper LC3000 / Desktop Profiler); conditions: AK A (Aurora kinase A) inhibition
T1 construct: N-terminal GST fusion with full length Aurora A (1-403 amino acids); purchased Carna Biosciences 05-101
T1 sequence (O14965 1-403): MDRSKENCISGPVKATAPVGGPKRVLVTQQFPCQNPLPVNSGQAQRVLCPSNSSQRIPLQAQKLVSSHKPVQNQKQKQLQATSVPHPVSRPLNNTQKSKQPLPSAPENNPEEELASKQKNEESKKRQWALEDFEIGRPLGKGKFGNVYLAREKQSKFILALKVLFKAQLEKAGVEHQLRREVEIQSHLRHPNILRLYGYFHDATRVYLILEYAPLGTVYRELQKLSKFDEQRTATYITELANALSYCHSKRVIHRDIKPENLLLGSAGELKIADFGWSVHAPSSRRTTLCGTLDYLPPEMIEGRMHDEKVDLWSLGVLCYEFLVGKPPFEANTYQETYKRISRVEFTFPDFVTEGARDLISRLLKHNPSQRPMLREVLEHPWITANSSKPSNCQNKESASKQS
Experimental: (§1) The Aurora assays described here are performed on two Caliper Life Sciences systems: the LC3000 and the Desktop Profiler. The RON kinase assays are performed on the Desktop Profiler only. These provide data on enzyme activity via measurement of the relative amounts of phosphorylated or unphosphorylated fluorescently labelled substrate peptide at the end of an enzymatic reaction. These different states of peptide are resolved by applying a potential difference across the sample. The presence of the charged phosphate group on the product (as opposed to the substrate) causes a different peptide mobility between the two peptides. This is visualized by excitation of the fluorescent label on the substrate and product peptides and represented as peaks within the analysis software.
In order to measure inhibitor activity of Aurora A inhibitors in the Caliper Life Sciences LC3000, a TTP Mosquito liquid handling instrument is used to place 0.25 ul of the appropriate concentration of inhibitor in 100% DMSO (for a dose response curve calculation) into each well of a 384-well plate. To this reaction components are added to a final volume of 25 ul: • 0.067 ng/ul GST-Aurora A (Carna Biosciences 05-101. N-terminal GST fusion with full length Aurora A (1-403 amino acids), accession number NP_940835.1). • 15 uM ATP (Fluka, 02055) • 1 mM DTT (Sigma, D0632) • 1 mM MgCl2 (Sigma, M1028) • 1 uM substrate peptide (sequence FITC-LRRASLG-(CONH2), synthesized by Tufts Peptide Synthesis service. • 100 mM HEPES pH 7.5 (Calbiochem, 391338) • 0.015% Brij-35 (Sigma, B4184)
The reaction is incubated for 90 min at 25 C, and then stopped by the addition of 70 ul of Stop buffer (100 mM HEPES pH 7.5, 0.015% Brij-35, 10 mM EDTA (Sigma, E7889)).
The plate is read on a Caliper LC3000 in an Off-Chip mobility shift assay format, using the following parameters for a 12-sipper chip: screening pressure −1.8 psi, upstream voltage −2700, downstream voltage −1000. These conditions cause unphosphorylated substrate and phosphorylated product peptide to resolve as separate peaks allowing direct measurement of percentage of conversion of substrate to product. The percent conversion can be plotted against concentration of inhibitor to produce a sigmoidal dose response curve, from which an IC50 can be calculated using XLFit for Microsoft Excel.
(§2) The Desktop Profiler utilizes the same priniciple as the LC3000 for calculating percentage conversion of a substrate to product. Caliper Life Sciences provides proprietary flash frozen pre-made 384 well plates containing selected kinases. Each column in the 384 well plate contains a particular selected kinase. A second plate, the ‘substrate plate’ contains a mix of fluorescently labeled peptide substrate and ATP. These are arranged in columns so that transfer for substrate plate to enzyme plate provides the correct enzyme with the correct substrate/ATP concentration. Compounds are added to a thawed enzyme plate in the desired format, in single concentrations. Reactions are initiated by transfer of the substrate/ATP mix from the substrate plate. The enzyme plate is incubated for 90 minutes at 25 C. The reaction is stopped by addition of 70 ul of Stop Buffer (100 mM HEPES pH 7.5, 0.015% Brij-35, 10 mM EDTA (Sigma, E7889)).
(§3) Reading of the plate in the Profiler is identical to the LC3000, and the ratio between substrate and product peaks provides the activity of the enzyme in that well. This is best represented by a plate heat map which colors each well by percent inhibition as compared to positive and negative controls (no inhibitors and no ATP respectively).

IC50 [nM] | Structure (SMILES)
10 to 100 | O=C(Nc1ccc(Nc2ccnc3c2CN(CC(F)(F)F)C(=O)N3)cc1)c1ccc(F)cc1C(F)(F)F [Example 38, 4-fluoro-N-(4-(2-oxo-3-(2,2,2-trifluoroethyl)-1,2,3,4-tetrahydropyrido [2,3-d]pyrimidin-5-ylamino)phenyl)-2-(trifluoromethyl) benzamide]
10 to 100 | CN1Cc2c(Nc3ccc(NC(=O)c4cccc(F)c4F)c(F)c3)ccnc2NC1=O [Example 39, 2,3-difluoro-N-(2-fluoro-4-(3-methyl-2-oxo-1,2,3,4-tetrahydropyrido [2,3-d]pyrimidin-5-ylamino)phenyl) benzamide]
< 10 | O=C(Nc1ccc(Nc2ccnc3c2CN(CC(F)(F)F)C(=O)N3)c(F)c1)c1ccc(F)cc1C(F)(F)F [Example 40, 4-fluoro-N-(3-fluoro-4-(2-oxo-3-(2,2,2-trifluoroethyl)-1,2,3,4-tetrahydropyrido[2,3-d]pyrimidin-5-ylamino)phenyl)-2-(trifluoromethyl) benzamide]
10 to 100 | CN1Cc2c(Nc3ccc(NC(=O)c4ccccc4F)cc3F)ccnc2NC1=O [Example 41, 2-fluoro-N-(3-fluoro-4-(3-methyl-2-oxo-1,2,3,4-tetrahydropyrido [2,3-d]pyrimidin-5-ylamino)phenyl) benzamide]
100 to 1000 | O=C(Nc1ccc(Nc2ccnc3c2C2OCCN2C(=O)N3)cc1)c1ccc(F)cc1C(F)(F)F (stereo not shown) [Example 43, 4-fluoro-N-(4-(5-oxo-3,5,6,10b-tetrahydro-2H-oxazolo[3,2-c]pyrido [3,2-e]pyrimidin-10-ylamino)phenyl)-2-(trifluoromethyl) benzamide]
100 to 1000 | COc1ccc(CN2Cc3c(Nc4ccc(NC(=O)CC(F)(F)F)cc4)ccnc3NC2=O)cc1 [Example 100, 3,3,3-trifluoro-N-(4-{[3-(4-methoxybenzyl)-2-oxo-1,2,3,4-tetrahydropyrido[2,3-d]pyrimidin-5-yl]amino}phenyl)propanamide]
100 to 1000 | O=C(CC(F)(F)F)Nc1ccc(Nc2ccnc3c2CNC(=O)N3)cc1 [Example 107, 3,3,3-trifluoro-N-{4-[(2-oxo-1,2,3,4-tetrahydropyrido[2,3-d]pyrimidin-5-yl)amino]phenyl}propanamide]
10 to 100 | O=C(CC1CC1)Nc1ccc(Nc2ccnc3c2CNC(=O)N3)cc1 [Example 108, 2-cyclopropyl-N-{4-[(2-oxo-1,2,3,4-tetrahydropyrido[2,3-d]pyrimidin-5-yl)amino]phenyl}acetamide]
10 to 100 | COc1ccc(CN2Cc3c(Nc4ccc(NC(=O)c5ccc(F)cc5C(F)(F)F)cc4F)ccnc3NC2=O)cc1 [Example 112, 4-fluoro-N-(3-fluoro-4-{[3-(4-methoxybenzyl)-2-oxo-1,2,3,4-tetrahydropyrido[2,3-d]pyrimidin-5-yl]amino}phenyl)-2-(trifluoromethyl)benzamide]
100 to 1000 | COc1ccc(CN2Cc3c(Nc4ccc(NC(=O)c5cccc(F)c5)cc4F)ccnc3NC2=O)cc1 [Example 113, 3-fluoro-N-(3-fluoro-4-{[3-(4-methoxybenzyl)-2-oxo-1,2,3,4-tetrahydropyrido[2,3-d]pyrimidin-5-yl]amino}phenyl)benzamide]
100 to 1000 | COc1ccc(CN2Cc3c(Nc4ccc(NC(=O)c5ccccc5F)cc4F)ccnc3NC2=O)cc1 [Example 114, 2-fluoro-N-(3-fluoro-4-{[3-(4-methoxybenzyl)-2-oxo-1,2,3,4-tetrahydropyrido[2,3-d]pyrimidin-5-yl]amino}phenyl)benzamide]
< 10 | O=C1NCc2c(Nc3ccc(NC(=O)c4ccc(F)cc4C(F)(F)F)cc3F)ccnc2N1 [Example 116, 4-fluoro-N-{3-fluoro-4-[(2-oxo-1,2,3,4-tetrahydropyrido[2,3-d]pyrimidin-5-yl)amino]phenyl}-2-(trifluoromethyl)benzamide]
10 to 100 | O=C1NCc2c(Nc3ccc(NC(=O)c4cccc(F)c4)cc3F)ccnc2N1 [Example 117, 3-fluoro-N-{3-fluoro-4-[(2-oxo-1,2,3,4-tetrahydropyrido[2,3-d]pyrimidin-5-yl)amino]phenyl}benzamide]
10 to 100 | O=C1NCc2c(Nc3ccc(NC(=O)c4ccccc4F)cc3F)ccnc2N1 [Example 118, 2-fluoro-N-{3-fluoro-4-[(2-oxo-1,2,3,4-tetrahydropyrido[2,3-d]pyrimidin-5-yl)amino]phenyl}benzamide]
100 to 1000 | COc1ccc(CN2Cc3c(Nc4ccc(NC(=O)Nc5ccc(F)cc5C(F)(F)F)cc4)ccnc3NC2=O)cc1 [Example 119, N-[4-fluoro-2-(trifluoromethyl)phenyl]-N′-(4-{[3-(4-methoxybenzyl)-2-oxo-1,2,3,4-tetrahydropyrido[2,3-d]pyrimidin-5-yl]amino}phenyl)urea]
100 to 1000 | COc1ccc(CN2Cc3c(Nc4ccc(NC(=O)Nc5ccc(F)c(F)c5)cc4)ccnc3NC2=O)cc1 [Example 120, N-(3,4-difluorophenyl)-N′-(4-{[3-(4-methoxybenzyl)-2-oxo-1,2,3,4-tetrahydropyrido[2,3-d]pyrimidin-5-yl]amino}phenyl)urea]
10 to 100 | O=C(Nc1ccc(Nc2ccnc3c2CNC(=O)N3)cc1)Nc1ccc(F)cc1C(F)(F)F [Example 121, N-[4-fluoro-2-(trifluoromethyl)phenyl]-N′-{4-[(2-oxo-1,2,3,4-tetrahydropyrido[2,3-d]pyrimidin-5-yl)amino]phenyl}urea]
10 to 100 | COc1ccc(CN2Cc3c(-c4ccc(C(=O)NCc5ccc(F)c(OC)c5)s4)ccnc3NC2=O)cc1 [Example 129, N-(4-fluoro-3-methoxybenzyl)-5-[3-(4-methoxybenzyl)-2-oxo-1,2,3,4-tetrahydropyrido[2,3-d]pyrimidin-5-yl]thiophene-2-carboxamide]
10 to 100 | COc1cc(CNC(=O)c2ccc(-c3ccnc4c3CNC(=O)N4)s2)ccc1F [Example 130, N-(4-fluoro-3-methoxybenzyl)-5-(2-oxo-1,2,3,4-tetrahydropyrido[2,3-d]pyrimidin-5-yl)thiophene-2-carboxamide]

biological target: T2, RON kinase (Homo sapiens, UniProt Q04912); assay: RON kinase biochemical mobility shift assay (Caliper Desktop Profiler); conditions: RON kinase inhibition
T2 construct: purchased Caliper Life Sciences
Experimental: as §1, §2, §3

T2 sequence (Q04912 25-1400): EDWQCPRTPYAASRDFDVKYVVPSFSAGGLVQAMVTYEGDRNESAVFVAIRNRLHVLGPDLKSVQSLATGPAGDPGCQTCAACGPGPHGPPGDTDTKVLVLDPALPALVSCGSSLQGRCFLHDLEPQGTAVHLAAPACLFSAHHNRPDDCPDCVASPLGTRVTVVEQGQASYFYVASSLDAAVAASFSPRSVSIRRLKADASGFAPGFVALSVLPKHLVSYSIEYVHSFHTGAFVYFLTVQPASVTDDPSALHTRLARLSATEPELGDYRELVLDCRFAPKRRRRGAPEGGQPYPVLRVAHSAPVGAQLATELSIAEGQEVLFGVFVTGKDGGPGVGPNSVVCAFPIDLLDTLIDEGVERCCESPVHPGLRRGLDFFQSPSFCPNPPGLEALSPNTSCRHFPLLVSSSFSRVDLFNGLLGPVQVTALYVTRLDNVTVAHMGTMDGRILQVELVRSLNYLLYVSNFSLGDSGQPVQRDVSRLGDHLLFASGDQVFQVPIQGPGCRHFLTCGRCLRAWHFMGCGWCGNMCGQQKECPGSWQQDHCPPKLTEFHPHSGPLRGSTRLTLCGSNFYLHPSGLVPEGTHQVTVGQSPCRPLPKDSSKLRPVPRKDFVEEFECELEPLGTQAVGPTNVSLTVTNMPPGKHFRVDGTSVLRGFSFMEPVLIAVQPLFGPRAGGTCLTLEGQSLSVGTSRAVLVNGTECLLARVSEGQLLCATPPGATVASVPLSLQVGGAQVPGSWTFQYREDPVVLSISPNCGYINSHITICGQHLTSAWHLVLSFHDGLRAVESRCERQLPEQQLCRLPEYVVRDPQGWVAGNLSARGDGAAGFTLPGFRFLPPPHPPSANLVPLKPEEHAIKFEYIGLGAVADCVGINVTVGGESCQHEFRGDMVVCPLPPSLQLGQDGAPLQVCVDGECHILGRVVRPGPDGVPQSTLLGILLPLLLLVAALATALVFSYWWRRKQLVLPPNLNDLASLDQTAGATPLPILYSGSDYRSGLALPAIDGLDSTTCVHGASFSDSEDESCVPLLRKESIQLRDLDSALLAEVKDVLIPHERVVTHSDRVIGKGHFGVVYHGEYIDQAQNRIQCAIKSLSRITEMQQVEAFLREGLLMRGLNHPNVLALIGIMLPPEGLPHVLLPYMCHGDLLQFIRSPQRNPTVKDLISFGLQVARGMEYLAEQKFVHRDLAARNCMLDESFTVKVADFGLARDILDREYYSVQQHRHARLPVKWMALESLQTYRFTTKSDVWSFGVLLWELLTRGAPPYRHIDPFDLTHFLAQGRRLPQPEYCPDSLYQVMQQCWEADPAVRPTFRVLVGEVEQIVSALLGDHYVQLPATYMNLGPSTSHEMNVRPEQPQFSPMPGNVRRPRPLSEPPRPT

IC50 [nM] | Structure (SMILES)
< 10 | O=C1NCc2c(Oc3ccc(NC(=O)c4cccn(-c5ccc(F)cc5)c4=O)cc3F)ccnc2N1 [Example 59, N-{3-fluoro-4-[(2-oxo-1,2,3,4-tetrahydropyrido[2,3-d]pyrimidin-5-yl)oxy]phenyl}-1-(4-fluorophenyl)-2-oxo-1,2-dihydropyridine-3-carboxamide]
100 to 1000 | Cc1c(C(=O)Nc2ccc(Oc3ccnc4c3CNC(=O)N4)c(F)c2)c(=O)n(-c2ccccc2)n1CC(C)(C)O [Example 74, N-{3-fluoro-4-[(2-oxo-1,2,3,4-tetrahydropyrido[2,3-d]pyrimidin-5-yl)oxy]phenyl}-1-(2-hydroxy-2-methylpropyl)-5-methyl-3-oxo-2-phenyl-2,3-dihydro-1H-pyrazole-4-carboxamide]
100 to 1000 | Cc1c(C(=O)Nc2ccc(Oc3ccnc4c3C3OCCCN3C(=O)N4)c(F)c2)c(=O)n(-c2ccccc2)n1CC(C)(C)O (stereo not shown) [Example 75, N-{3-fluoro-4-[(6-oxo-3,4,7,11b-tetrahydro-2H,6H-pyrido[2′,3′:4,5]pyrimido[6,1-b][1,3]oxazin-11-yl)oxy]phenyl}-1-(2-hydroxy-2-methylpropyl)-5-methyl-3-oxo-2-phenyl-2,3-dihydro-1H-pyrazole-4-carboxamide]
